Experimental data published in patent US20060058364A1, “Treatment of dependence and dependence related withdrawal symptoms” (priority 2002, published 2006).
Like-named read-outs stand apart in the source and are kept apart here.

Legend:
[1] = system: atipamezole cue (atipamezole-associated lever selection); type: in vivo; settings: for dose at which full generalization was achieved: training dose 1 mg/kg s.c.
Method: A total of 50 Sprague-Dawley male rats (B&K, Sweden) were used in the drug discrimination experiment at Orion Pharma, Turku, Finland. The rats were housed in solid bottom polypropylene cages with stainless steel mesh lids 5 rats per cage on a 12/12 hour light/dark cycle (lights on at 06.00 a.m.) under standard conditions in 21±1° C. temperature. […] During training period the rats were allowed food 6-15 g/day immediately after the session and during testing period they were allowed 12-15 g/day after the session. The rats adopted well to this feeding schedule and grew slowly but steadily. Rats were drug and experimentally naive at the start of the experiments. All experimentation was approved by the local laboratory animal care and experimentation committee. The animals were housed according to the recommendations of Declaration of Helsinki and DHEW pub. No (NIH) 85-23 entitled “Guide for the care and use of laboratory animals”.
The drugs used were atipamezole HCl and MPV-1730 HCl (Orion Pharma, Finland), d-amphetamine sulphate (Sigma, USA), cocaine HCl (Tamro, Finland)) and desipramine HCl (Sigma, USA). All doses refer to respective salt forms. Drugs were diluted in sterile purified water (Aquasteril, Orion Pharma, Finland) and were prepared daily. Injections were given 30 min before the sessions. Saline (Natrosteril, Orion Pharma, Finland) was used in control administrations. Drugs were administered subcutaneously (s.c.) or intraperiotoneally (i.p.) in a volume of 1 ml/kg or perorally (p.o.) gy a gavage 10 ml/kg.
In the atipamezole discrimination experiment five identical operant chambers enclosed in larger sound and light attenuating, fan ventilated enclosures were used. Each chamber was equipped with two identical levers on one wall. Between these levers was a food cup, where 45 mg reward pellets (F0021, Bio-Serv, Frenchtown, USA) could be presented. The whole operant system was purchased from Rhema-Labortechnik, Hofheim, Germany.
The training to press levers for reward pellets was started with 50 rats with a continuous reinforcement (CRF) schedule, when both levers were active and later by changing daily the active lever. […] The duration of the session to this point was 30 min and thereafter the training sessions were reduced to 15 min. The discrimination training dose of atipamezole (1 mg/kg s.c.) was selected according to the effect of atipamezole (0, 0.1, 0.3, 1 and 3 mg/kg s.c.) on FR-10 responding when tested in the rats (session 30, data not shown). Thereafter, discrimination training was started with 46 rats. The discrimination training was done in following two week sequence: S-D-D-S-S and D-S-S-D-D (D=drug appropriate lever, S=saline lever) (Colpaert F., Niemegeers, C., Janssen, P. Theoretical and methodological considerations on drug discrimination learning. Psychopharmacologia (Berl.) 46: 169-177, 1976.). For half of the rats the right lever was a drug-appropriate lever and for the another half the left lever. During training only the drug- or saline-appropriate lever was active, but both levers were recorded. If a rat chose the correct lever during ten consecutive sessions and the total number of responses before the first reinforcer was 15 or less, the rat was accepted to the drug tests.
When the rats had reached the criterion, they were tested twice a week (usually on Wednesdays and Fridays) with different drugs. The normal sequence of saline or atipamezole was continued on other days. The lever selection had to be correct on the preceding day of the drug test and on the next day after drug test in order to be approved in the results. In the testing day, the rat decided which lever was activated by pressing ten lever presses on either of the levers. The selected lever was activated during the rest of the session. The previous saline day was used as a predrug control value. […]

[2] = system: alpha1-adrenergic, dopaminergic, GABAergic, serotonergic (such as 5-HT1A) etc. receptors; settings: cited from earlier work
idazoxan cue = settings: rats trained to discriminate idazoxan; cited from earlier work
[3] = system: 5-HT1A receptors or 5-HT1D receptors; settings: cited from earlier work
amphetamine cue = settings: rats trained to discriminate d-amphetamine; cited from earlier work
[4] = system: dopaminergic, 5-hydroxyhyptaminergic receptors and benzodiazepine receptors; settings: cited from earlier work
[5] = system: psychostimulants such as amphetamine and cocaine (cue); settings: rat, in vivo; cited from earlier work

Compound: CCC1(c2c[nH]cn2)Cc2ccccc2C1.Cl [Atipamezole, 4-(2-ethyl-2,3-dihydro-1H-inden-2-yl)-1H-imidazole hydrochloride]
- atipamezole-associated lever selection ([1]; 0.003-10 mg/kg, FIG. 1): dose-responsively increased
- dose at which full generalization was achieved ([1]; atipamezole p.o., 60 min before session, FIG. 1): 1 mg/kg
- dose at which full generalization was achieved ([1]; atipamezole s.c., 30 min before session, FIG. 1): 0.3 mg/kg
- affinity for any other neurotransmitter receptors [2]: negligible affinity

Compound: C[C@H](N)Cc1ccccc1 [d-amphetamine]
- generalization to idazoxan (idazoxan cue): did not generalize
- generalization to atipamezole cue ([1]; s.c., tested 0.03-1 mg/kg, at doses 0.5 and 1 mg/kg, 30 min before session, FIG. 2): clearly generalized

Compound: CCC1(c2c[nH]cn2)Cc2ccc(F)cc2C1 (stereo not drawn) [MPV-1730, 4-(2-ethyl-5-fluoro-2,3-dihydro-1H-inden-2-yl)-1H-imidazole]
- generalization to atipamezole cue ([1]; 0.01-1 mg/kg s.c., 30 min before session, FIG. 3): generalized to atipamezole cue

Compound: COC1(C2=NCCN2)COc2ccccc2O1 (stereo not drawn) [RX821002]
- affinity on 5-HT1A receptors or 5-HT1D receptors [3]: have affinity

Compound: CC1c2ccccc2CN1CC1=NCCN1 (stereo not drawn) [BRL 44408]
- affinity on 5-HT1A receptors or 5-HT1D receptors [3]: have affinity

Compound: COC(=O)[C@@H]1[C@H]2C[C@H]3c4[nH]c5ccccc5c4CCN3C[C@@H]2CC[C@@H]1O [yohimbine]
- generalization to amphetamine (amphetamine cue): did not generalize
- affinity to other than noradrenergic receptors [4]: has affinity

Compound: c1ccc2c(c1)OCC(C1=NCCN1)O2 (stereo not drawn) [idazoxan]
- generalization to amphetamine (amphetamine cue): did not generalize
- affinity on 5-HT1A receptors or 5-HT1D receptors [3]: have affinity

Compound: COc1ccc2c(c1)CCN1C[C@H]3CCCN(S(C)(=O)=O)[C@H]3C[C@@H]21 [delequamine]
- affinity on 5-HT1A receptors or 5-HT1D receptors [3]: have affinity

Compound: CNCCCN1c2ccccc2CCc2ccccc21 [desipramine]
- generalization to atipamezole ([1]; i.p., 30 min before session, FIG. 4): not generalized
- tolerability of higher doses ([1]; rat, in vivo): discontinued due to a prolonged lack of appetite
- generalisation to psychostimulants [5]: only weakly

Compound: COc1ccccc1N1CCN(CCN2C(=O)c3ccccc3C(C)(C)C2=O)CC1 [ARC 239]
- affinity on 5-HT1A receptors or 5-HT1D receptors [3]: have affinity
